Test results published in ChEMBL document CHEMBL1201862, “PubChem BioAssay data set” (2004).
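Tested at 5 concentrations; 48 h exposure; 96-well plates; endpoints linearly interpolated, else capped at highest concentration. GI50: concentration for 50% inhibition of growth.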 Active and inactive are the calls of the source. Rule as the data show it: active = GI50 up to about 1.1 µM and inactive = higher.

Tests used:
Assay in all cases: inhibition of tumour cell growth, NCI panel, 48 h
[1] = tested on: RPMI-8226
[2] = tested on: NCI-H522
[3] = tested on: COLO 205
[4] = tested on: K562
[5] = tested on: ACHN
[6] = tested on: A549
[7] = tested on: NCI/ADR-RES
[8] = tested on: SK-MEL-2
[9] = tested on: SK-MEL-5
[10] = tested on: HOP-62
[11] = tested on: HT-29
[12] = tested on: EKVX
[13] = tested on: SF-295
[14] = tested on: MDA-N
[15] = tested on: 786-0
[16] = tested on: SNB-19
[17] = tested on: SNB-75
[18] = tested on: UO-31
[19] = tested on: TK-10
[20] = tested on: OVCAR-3

SMILES	GI50 [1]	GI50 [2]	GI50 [3]	GI50 [4]	GI50 [5]	GI50 [6]	GI50 [7]	GI50 [8]	GI50 [9]	GI50 [10]	GI50 [11]	GI50 [12]	GI50 [13]	GI50 [14]	GI50 [15]	GI50 [16]	GI50 [17]	GI50 [18]	GI50 [19]	GI50 [20]
C=CC(=O)N1C/C(=C\c2ccccc2)C(=O)/C(=C/c2ccccc2)C1	0.0462 µM (active)	1.24 µM (inactive)	1.83 µM (inactive)	0.265 µM (active)	1.83 µM (inactive)	2.92 µM (inactive)	1.93 µM (inactive)	2.1 µM (inactive)	1.61 µM (inactive)	2.33 µM (inactive)	0.467 µM (active)	3.47 µM (inactive)	2.1 µM (inactive)	0.318 µM (active)	1.06 µM (active)	2.54 µM (inactive)	3.24 µM (inactive)	1.77 µM (inactive)	2.88 µM (inactive)	1.48 µM (inactive)
CC(=O)OCCN1c2ccccc2Sc2cnccc21	> 10 µM (inactive)	> 10 µM (inactive)	> 10 µM (inactive)	> 10 µM (inactive)	> 10 µM (inactive)	> 10 µM (inactive)	> 10 µM (inactive)	> 10 µM (inactive)	> 10 µM (inactive)	> 10 µM (inactive)	> 10 µM (inactive)	8.55 µM (inactive)	> 10 µM (inactive)	> 10 µM (inactive)	> 10 µM (inactive)	> 10 µM (inactive)	9.38 µM (inactive)	> 10 µM (inactive)	> 10 µM (inactive)	> 10 µM (inactive)
Cc1nc(=O)[nH]c2s/c(=N/C3CCCCC3)n(C3CCCCC3)c(=O)c12	> 100 µM (inactive)	> 100 µM (inactive)	> 100 µM (inactive)	> 100 µM (inactive)	> 100 µM (inactive)	> 100 µM (inactive)	> 100 µM (inactive)	> 100 µM (inactive)	> 100 µM (inactive)	> 100 µM (inactive)	> 100 µM (inactive)	> 100 µM (inactive)	> 100 µM (inactive)	> 100 µM (inactive)	> 100 µM (inactive)	> 100 µM (inactive)	> 100 µM (inactive)	> 100 µM (inactive)	> 100 µM (inactive)	> 100 µM (inactive)
COC(=O)CCC1(O)C=CC(=O)C=C1	31.7 µM (inactive)	14.1 µM (inactive)	17.6 µM (inactive)	38.9 µM (inactive)	51.6 µM (inactive)	> 100 µM (inactive)	31.3 µM (inactive)	> 100 µM (inactive)	31.9 µM (inactive)	> 100 µM (inactive)	36.7 µM (inactive)	> 100 µM (inactive)	> 100 µM (inactive)	63.4 µM (inactive)	36.4 µM (inactive)	37.8 µM (inactive)	> 100 µM (inactive)	55 µM (inactive)	36.7 µM (inactive)	24.4 µM (inactive)
CC1=NN(c2nc(N)nc(CBr)n2)C(C)(C)C1	1.13 µM (inactive)	0.234 µM (active)	3.03 µM (inactive)	2.02 µM (inactive)	3.56 µM (inactive)	12.6 µM (inactive)	17.7 µM (inactive)	12.9 µM (inactive)	11.3 µM (inactive)	19.7 µM (inactive)	4.98 µM (inactive)	3.66 µM (inactive)	12.1 µM (inactive)	11.5 µM (inactive)	0.692 µM (active)	16.7 µM (inactive)	9.75 µM (inactive)	0.384 µM (active)	4.25 µM (inactive)	3.42 µM (inactive)
COC(=O)CCCC(=O)NC1=C(Nc2ccc(OC)cc2)C(=O)c2ccccc2C1=O	26.4 µM (inactive)	37.5 µM (inactive)	25.4 µM (inactive)	23.9 µM (inactive)	28 µM (inactive)	22.3 µM (inactive)	21.9 µM (inactive)	17.9 µM (inactive)	–	–	–	21.9 µM (inactive)	30.4 µM (inactive)	20.7 µM (inactive)	34.6 µM (inactive)	42.7 µM (inactive)	32.2 µM (inactive)	46.2 µM (inactive)	> 100 µM (inactive)	6.25 µM (inactive)
CCOC(=O)c1c(N2CCOCC2)ncn(-c2cccc(Cl)c2)c1=O	> 100 µM (inactive)	> 100 µM (inactive)	> 100 µM (inactive)	> 100 µM (inactive)	> 100 µM (inactive)	> 100 µM (inactive)	> 100 µM (inactive)	> 100 µM (inactive)	–	> 100 µM (inactive)	> 100 µM (inactive)	> 100 µM (inactive)	> 100 µM (inactive)	> 100 µM (inactive)	> 100 µM (inactive)	> 100 µM (inactive)	> 100 µM (inactive)	–	> 100 µM (inactive)	> 100 µM (inactive)
O=c1c2cc(S(=O)(=O)Nc3ccccc3Cl)ccc2ncn1NS(=O)(=O)c1ccc(Br)cc1	> 37.5 µM (inactive)	> 37.5 µM (inactive)	> 37.5 µM (inactive)	17.8 µM (inactive)	> 37.5 µM (inactive)	> 37.5 µM (inactive)	> 37.5 µM (inactive)	> 37.5 µM (inactive)	–	> 37.5 µM (inactive)	> 37.5 µM (inactive)	> 37.5 µM (inactive)	> 37.5 µM (inactive)	> 37.5 µM (inactive)	> 37.5 µM (inactive)	> 37.5 µM (inactive)	> 37.5 µM (inactive)	> 37.5 µM (inactive)	> 37.5 µM (inactive)	> 37.5 µM (inactive)
Nc1ncnc2c1ncn2CC(O)C(=O)O (configuration not stated)	> 100 µM (inactive)	> 100 µM (inactive)	> 100 µM (inactive)	> 100 µM (inactive)	> 100 µM (inactive)	> 100 µM (inactive)	> 100 µM (inactive)	> 100 µM (inactive)	> 100 µM (inactive)	> 100 µM (inactive)	> 100 µM (inactive)	> 100 µM (inactive)	> 100 µM (inactive)	> 100 µM (inactive)	> 100 µM (inactive)	> 100 µM (inactive)	> 100 µM (inactive)	> 100 µM (inactive)	> 100 µM (inactive)	> 100 µM (inactive)
COc1cccc(C2CC(C)(N3CCCC3)Oc3cc4c(cc32)OCO4)c1O (configuration not stated)	21.3 µM (inactive)	19.1 µM (inactive)	19.1 µM (inactive)	9.31 µM (inactive)	36.7 µM (inactive)	31.9 µM (inactive)	20.8 µM (inactive)	16.5 µM (inactive)	12.4 µM (inactive)	27 µM (inactive)	19.1 µM (inactive)	63.2 µM (inactive)	22.1 µM (inactive)	2.54 µM (inactive)	32.8 µM (inactive)	37.6 µM (inactive)	15.5 µM (inactive)	32.5 µM (inactive)	37.3 µM (inactive)	20 µM (inactive)
CC1(C)OC(=O)C(C#N)=C1C[n+]1ccccc1	> 10 µM (inactive)	> 10 µM (inactive)	> 10 µM (inactive)	> 10 µM (inactive)	> 10 µM (inactive)	–	> 10 µM (inactive)	> 10 µM (inactive)	> 10 µM (inactive)	> 10 µM (inactive)	> 10 µM (inactive)	> 10 µM (inactive)	> 10 µM (inactive)	> 10 µM (inactive)	> 10 µM (inactive)	> 10 µM (inactive)	> 10 µM (inactive)	> 10 µM (inactive)	> 10 µM (inactive)	> 10 µM (inactive)
Cc1cn(S(=O)(=O)c2ccccc2)c2c(OCc3ccccc3)cc(NS(C)(=O)=O)cc12	13.2 µM (inactive)	18.8 µM (inactive)	10.3 µM (inactive)	20.1 µM (inactive)	20.4 µM (inactive)	9.82 µM (inactive)	14.9 µM (inactive)	18.1 µM (inactive)	4.35 µM (inactive)	50.2 µM (inactive)	4.42 µM (inactive)	5.35 µM (inactive)	14.7 µM (inactive)	10.7 µM (inactive)	16.4 µM (inactive)	43.3 µM (inactive)	22.9 µM (inactive)	17.7 µM (inactive)	> 85.9 µM (inactive)	10.6 µM (inactive)
CC(C)/C(Cl)=N/OC(=O)Nc1ccc(Br)cc1	1.75 µM (inactive)	1.52 µM (inactive)	1.88 µM (inactive)	1.23 µM (inactive)	1.74 µM (inactive)	18.2 µM (inactive)	13.4 µM (inactive)	16.8 µM (inactive)	12.9 µM (inactive)	16.9 µM (inactive)	5.83 µM (inactive)	1.97 µM (inactive)	15.2 µM (inactive)	4.83 µM (inactive)	1.88 µM (inactive)	20.8 µM (inactive)	18.6 µM (inactive)	11.6 µM (inactive)	13.2 µM (inactive)	4.89 µM (inactive)
CN1Cc2ccccc2/C=C\c2ccccc21	25.4 µM (inactive)	37.5 µM (inactive)	44.5 µM (inactive)	–	> 100 µM (inactive)	50.1 µM (inactive)	> 100 µM (inactive)	25.4 µM (inactive)	40.2 µM (inactive)	> 100 µM (inactive)	28.1 µM (inactive)	30.8 µM (inactive)	62.7 µM (inactive)	42.2 µM (inactive)	95.9 µM (inactive)	> 100 µM (inactive)	65.6 µM (inactive)	80.2 µM (inactive)	70.5 µM (inactive)	47.3 µM (inactive)
